The record followed here is PMC8071274 (International Journal of Molecular Sciences, 2021).

The nature of data set [1]: Time-dependent alteration of molecular forms of MCT-2(1–15) in mouse serum (RP-HPLC, MALDI-TOF-MS). It counts as in vitro ADME. The following applies: 37 °C; for time of maximum amount of the degradation product in serum: RP-HPLC, MALDI-TOF-MS. How it is done:
Male C57BL/6JJcl mice, 12–14 weeks of age, weighing 25–30 g, were anesthetized (50 mg/kg pentobarbital), and blood was collected from the caudal vena cava and stored overnight at 4 °C. The blood sample was centrifuged at 4 °C and 20,000× g for 20 min, and the supernatant was transferred to a new tube as mouse serum and stored at −80 °C. MCT-2(1–15) was incubated in mouse serum at a final concentration of 500 μM at 37 °C, and aliquots (100 μL) were collected from the incubation mixture after 0, 1, 2, 4, 24, and 48 h. These aliquots were mixed with TCA (final concentration: 3% w/v) and kept on ice for 30 min to precipitate denatured proteins. The samples were centrifuged at 4 °C and 13,000× g for 15 min, and the supernatants were analyzed by RP-HPLC on a C18 column (4.6 × 150 mm, Cosmosil; Nacalai Tesque, Inc.). RP-HPLC peaks that contained MCT-2(1–15) and its derivative peptides were analyzed by MALDI-TOF-MS to identify their molecular forms.

Data set [2] relates to differentiated HL-60 cells. Type of data set: cell-based, human. The following applies: 72 h. How it is done:
HEK-293 cells (American Type Culture Collection, Manassas, VA, USA) were maintained in DMEM (Thermo Fisher Scientific, Waltham, MA, USA) containing 10% FBS (Thermo Fisher Scientific) in a humidified atmosphere at 5% CO2 and 37 °C. Human acute leukemia-derived HL-60 cells (RIKEN Cell Bank, Ibaraki, Japan) were cultured in RPMI-1640 medium (Thermo Fisher Scientific) containing 10% FBS in a humidified atmosphere at 5% CO2 and 37 °C. HL-60 cells were treated with 500 μM dibutyryl-cAMP (Sigma-Aldrich, St. Louis, MO, USA) for 72 h to differentiate the cells into neutrophilic/granulocytic cells as described elsewhere. The ability of MCT-2-related peptides to activate HL-60 cells differentiated into neutrophilic/granulocytic cells was evaluated by stimulation of β-hexosaminidase secretion from the cells. Briefly, differentiated HL-60 cells were washed 3 times with ice-cold HEPES-buffered Hank’s solution (HBHS; 10 mM HEPES, 136.9 mM NaCl, 5.4 mM KCl, 1.2 mM CaCl2, 0.44 mM KH2PO4, 0.49 mM MgCl2, 0.41 mM MgSO4, 0.34 mM Na2HPO4, 5.5 mM glucose, 4.2 mM NaHCO3, and 0.1% BSA, pH 7.4). The cells were resuspended in HBHS at a density of 5.6 × 10^6 cells/mL, and DNase I (Sigma-Aldrich) and cytochalasin B (Sigma-Aldrich) were each added at a final concentration of 5 μg/mL. The cell suspension in each tube (5.0 × 10^5 cells/90 μL) was preincubated at 37 °C for 10 min and stimulated with 10 μL synthetic peptide solution at 37 °C for 10 min. The inhibitory effects of inhibitors against FPR1 [CysH (Sigma-Aldrich)] and FPR2 [PBP10 (Tocris Bioscience, Bristol, UK)] on β-hexosaminidase release induced by MCT-2 and its derivatives were also evaluated in the differentiated HL-60 cells; each cell suspension prepared as above (90 μL) was transferred to a tube (5.0 × 10^5 cells/tube) with 5 μL inhibitor solution for FPR1 (CysH) or FPR2 (PBP10). Each tube was then preincubated at 37 °C for 10 min and stimulated with 5 μL synthetic peptide solution at 37 °C for 10 min. After stimulation, 200 μL ice-cold reaction quenching buffer (25 mM Tris, 123 mM NaCl, and 2.7 mM KCl, pH 7.4) was added to each cell suspension to stop the reaction. Thereafter, these tubes were centrifuged at 4 °C and 2300× g for 1 min, and each supernatant was transferred into a new tube. β-Hexosaminidase activity in the supernatant was measured as described previously. Briefly, 90 μL supernatant was transferred to each well of a 96-well microtiter plate, and 60 μL of a substrate solution for β-hexosaminidase [10 mM p-nitrophenyl N-acetyl-β-D-glucosaminide (Sigma-Aldrich), 40 mM citrate, and 70 mM NaHPO4, pH 4.5] was added to initiate the enzyme reaction. After incubation of the plate at 37 °C for 1 h, 100 μL of 400 mM glycine (pH 10.7) was added to stop the reaction. The absorbance at 415 nm for the resulting p-nitrophenol and at 490 nm for the reference was measured using a microtiter plate reader (Viento XS; BioTek Instruments, Winooski, VT, USA). The ability of each peptide to induce β-hexosaminidase release was expressed as a percentage of enzyme secretion promoted by 10 μM MCT-2(1–15) that induced the maximum response for the elucidation of full or partial agonists to the activity of MCT-2(1–15) (Figure 2 and Figure 4, Table 2) or a percentage of the total enzyme activity, which was the enzyme activity released after disruption of the cells with 0.05% Triton X-100 (Figure 3).

Data set [3] in a line: mouse serum. The following applies: Male C57BL/6JJcl mice, 37 °C, up to 48 h.
[4] abbreviates: product formed from 500 μM MCT-2(1–15) in mouse serum.
The mark [5] stands for this setting: product formed from 500 μM MCT-2(1–15) in mouse serum, 4 h.

“Also recorded” adds a separate entry of the source. Where a SMILES comes first, the peptide text is derived from it. Where no end group is shown, it is not given here. The star is where a group is joined. For = O=C*

As a reminder, the EC50 is the concentration needed to bring the measured effect to its halfway point. Regarding `CSCC[C@H](NC(=O)[C@@H]1CCCN1C(=O)[C@@H](NC(=O)[C@H](CCSC)NC=O)[C@@H](C)O)C(=O)O` [MCT-2(1–4)] (For-MTPM-OH), in data set [1] (setting [4]), the “time of first detection of the degradation product in serum” value turned out to be 1 h, the “time the degradation product was present in serum” value was “more than 48 h” and the “time of maximum amount of the degradation product in serum” value is reported as 4 h. For the same compound, in data set [1] (product formed from 500 μM MCT-2(1–15) in mouse serum, 48 h), the “presence of the degradation product in serum at 48 h” value is reported as “still present”. Also, the EC50 in data set [2] turned out to be 18 µM.
On to `CC[C@H](C)[C@H](NC(=O)[C@H](CCCCN)NC(=O)[C@H](CCCNC(=N)N)NC(=O)[C@H](CCSC)NC(=O)[C@@H]1CCCN1C(=O)[C@@H](NC(=O)[C@H](CCSC)NC=O)[C@@H](C)O)C(=O)N[C@@H](CC(N)=O)C(=O)N1CCC[C@H]1C(=O)N[C@@H](CC(C)C)C(=O)O` [MCT-2(1–10)] (For-MTPMRKINPL-OH), for which, in data set [1] (setting [4]), the “time of first detection of the degradation product in serum” value is recorded as 1 h and the “time of maximum amount of the degradation product in serum” value is 2 h. Moreover, the “presence of the degradation product in serum at 4 h” value in data set [1] (setting [5]) was “not found”. This compound yielded a concentration giving a half-maximal response (EC50) in data set [2] of 1.8 ± 0.173 µM.
On the same counts, the results for `CC[C@H](C)[C@H](NC(=O)[C@H](CCCCN)NC(=O)[C@H](CCCNC(=N)N)NC(=O)[C@H](CCSC)NC(=O)[C@@H]1CCCN1C(=O)[C@@H](NC(=O)[C@H](CCSC)NC=O)[C@@H](C)O)C(=O)N[C@@H](CC(N)=O)C(=O)N1CCC[C@H]1C(=O)N[C@@H](CC(C)C)C(=O)N[C@@H](CCSC)C(=O)O` [MCT-2(1–11)] (For-MTPMRKINPLM-OH) are 1 h, 1 h, “not found” and 0.547 ± 0.0939 µM.
As usually defined, the half-life is the time in which the quantity being followed falls by half. High values mean slow loss, low ones fast loss. `CC[C@H](C)[C@H](NC(=O)[C@H](CC(C)C)NC(=O)[C@H](CCCCN)NC(=O)[C@H](CCSC)NC(=O)[C@H](CC(C)C)NC(=O)[C@@H]1CCCN1C(=O)[C@H](CC(N)=O)NC(=O)[C@@H](NC(=O)[C@H](CCCCN)NC(=O)[C@H](CCCNC(=N)N)NC(=O)[C@H](CCSC)NC(=O)[C@@H]1CCCN1C(=O)[C@@H](NC(=O)[C@H](CCSC)NC=O)[C@@H](C)O)[C@@H](C)CC)C(=O)N[C@@H](CC(N)=O)C(=O)O` [MCT-2(1–15), Mitocryptide-2] (For-MTPMRKINPLMKLIN-OH): the metabolised at 1 h, 500 μM in data set [1] (male, C57BL/6JJcl, mouse serum, 500 μM peptide, 1 h, TCA precipitation, RP-HPLC (214 nm), read-out: reduction of amount of peptide in serum at 1 h) was approximately 50%. For the same compound, the metabolised at 2 h, 500 μM in data set [1] (male, C57BL/6JJcl, mouse serum, 500 μM peptide, 2 h, TCA precipitation, RP-HPLC (214 nm), read-out: reduction of amount of peptide in serum at 2 h) is approximately 80%. The same compound showed a half-life at 500 μM in data set [1] (male, C57BL/6JJcl, mouse serum, 500 μM peptide, RP-HPLC (214 nm)) of approximately 1 h. In addition, the “peptide remaining in serum at 4 h” value in data set [1] (mouse serum, 500 μM peptide, 4 h, RP-HPLC (214 nm)) was “completely disappeared”. The same compound displayed a 50% effective concentration (EC50) in data set [2] of 0.02 ± 0.00339 µM.
For-MTPMRKINPLMKLIN: in data set [3], the fragment found entry was “MCT-2(1–11), 1 h; also recorded: MCT-2(1–10), 1 h; also recorded: MCT-2(1–4), 1 h”.
